Laboratory results reported in the NIST ThermoML archive (doi:10.1016/j.fluid.2011.01.012).
Numbers after ± are expanded uncertainties.

Assays:
[1] = refractive index (Na D-line) (dimensionless); conditions: 293.15 K; 101.33 kPa; Liquid; Standard Abbe refractometry
[2] = Liquid; for mass density: 293.15 K, 101.33 kPa, Vibrating tube method; for Normal boiling temperature: Fischer Boiling Piont Apparatus

Compound CCOC(=O)CCC(=O)OCC [diethyl butanedioate] has a refractive index [1] of 1.42014 ± 0.00039, a mass density [2] of 1040.22 ± 0.36 kg/m3 and a Normal boiling temperature [2] of 217.7 ± 1 °C.
Work on CCOC(=O)CCCC(=O)OCC [diethyl glutarate] yielded a refractive index [1] of 1.42414 ± 0.00052, a mass density [2] of 1022.04 ± 0.92 kg/m3 and a Normal boiling temperature [2] of 236.5 ± 1 °C.
For CCOC(=O)CCCCC(=O)OCC [diethyl hexanedioate], the refractive index [1] was 1.42725 ± 0.00039, the mass density [2] was 1007.63 ± 0.34 kg/m3 and the Normal boiling temperature [2] was 245.1 ± 1 °C.
Work on O [water] yielded a refractive index [1] of 1.3324 ± 0.00033, a mass density [2] of 999.9 ± 0.24 kg/m3 and a Normal boiling temperature [2] of 100.1 ± 1 °C.
